Legend:
human GLP-1R receptor = biological target: T1, human GLP-1R receptor (Homo sapiens, UniProt P43220); test: GLP-1R low expression cell assay (cAMP TR-FRET, CHO-K1_hGLP-1Rlow_clone10 cells); type: cell-based; details: for EC50: cAMP TR-FRET, 30 min at 25° C.; for Emax: maximum activation relative to control GLP-1 peptide agonist
T1 construct: expressed in transfected cells
Procedure, shortened: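 CHO-K1 cells stably expressing low surface human GLP-1R (clone10), 1,000 cells/well, exposed to 10-point 3-fold compound dilutions for 30 min at 25 °C. cAMP measured by TR-FRET (Eu-cAMP tracer/ULight-anti-cAMP, 15 min). EC50 from Hill fit of duplicate percent activation relative to a parallel GLP-1 control agonist.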

[1] = Rat pharmacokinetics, oral dosing; type: in vivo, Sprague-Dawley rats; details: male, Sprague-Dawley, oral dosing at 3 mg/kg, plasma; for half-life: read-out: Rat T1/2

T1 sequence (P43220 24-463): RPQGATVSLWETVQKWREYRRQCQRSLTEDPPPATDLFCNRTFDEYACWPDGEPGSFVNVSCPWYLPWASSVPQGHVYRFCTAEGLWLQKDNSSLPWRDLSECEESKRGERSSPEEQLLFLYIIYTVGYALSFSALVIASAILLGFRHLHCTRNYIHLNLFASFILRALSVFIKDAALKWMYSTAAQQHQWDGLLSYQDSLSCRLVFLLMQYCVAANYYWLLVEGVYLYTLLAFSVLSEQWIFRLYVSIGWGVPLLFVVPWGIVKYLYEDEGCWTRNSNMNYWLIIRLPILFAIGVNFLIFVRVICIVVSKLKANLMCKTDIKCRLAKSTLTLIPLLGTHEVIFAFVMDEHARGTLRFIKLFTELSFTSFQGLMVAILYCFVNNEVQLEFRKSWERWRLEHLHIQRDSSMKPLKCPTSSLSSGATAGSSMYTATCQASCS

| Compound | EC50 (human GLP-1R receptor) [nM] | Emax (human GLP-1R receptor) [%] | Cmax [1] [ng/mL] | half-life [1] [h] | bioavailability [1] [%] | AUC [1] [ng·h/mL] |
| --- | --- | --- | --- | --- | --- | --- |
| Cn1c(CN2CCC(c3cccc(OCc4ccc(Cl)c5ccoc45)n3)CC2)nc2c(OC(F)F)cc(C(=O)O)cc21 [Compound 237, 2-((4-(6-((4-Chlorobenzofuran-7-yl)methoxy)pyridin-2-yl)piperidin-1-yl)methyl)-4-(difluoromethoxy)-1-methyl-1H-benzo[d]imidazole-6-carboxylic acid] | < 10 | > 85 | 2000 to 5000 | 1.5 to 2.5 | 50 to 85 | – |
| COc1cc(Cl)ccc1COc1cccc(C2CCN(Cc3nc4c(OC(F)F)cc(C(=O)O)cc4n3C)CC2)n1 [Compound 226, 2-((4-(6-((4-Chloro-2-methoxybenzyl)oxy)pyridin-2-yl)piperidin-1-yl)methyl)-4-(difluoromethoxy)-1-methyl-1H-benzo[d]imidazole-6-carboxylic acid] | < 10 | > 85 | > 5000 | ≥ 2.5 | > 85 | – |
| COc1cc(C#N)ccc1COc1cccc(C2CCN(Cc3nc4c(OC(F)F)cc(C(=O)O)cc4n3C)CC2)n1 [Compound 156, 2-((4-(6-((4-Cyano-2-methoxybenzyl)oxy)pyridin-2-yl)piperidin-1-yl)methyl)-4-(difluoromethoxy)-1-methyl-1H-benzo[d]imidazole-6-carboxylic acid] | < 10 | > 85 | 2000 to 5000 | < 1.5 | 50 to 85 | 2500 to 10000 |
| COc1cc(C(=O)O)cc2c1nc(CN1CCC(c3cccc(OCc4ccc(C#N)cc4F)n3)CC1)n2C [Compound 308, 2-((4-(6-((4-Cyano-2-fluorobenzyl)oxy)pyridin-2-yl)piperidin-1-yl)methyl)-4-methoxy-1-methyl-1H-benzo[d]imidazole-6-carboxylic acid] | < 10 | > 85 | 1000 to 2000 | 1.5 to 2.5 | 50 to 85 | 2500 to 10000 |
| COc1cc(C(=O)O)cc2c1nc(CN1CC[C@@H](c3cccc4c3O[C@@](C)(c3ccc(Cl)cn3)O4)[C@@H]3C[C@@H]31)n2C[C@@H]1CCO1 [Compound 89, 2-(((1S,5R,6S)-5-((S)-2-(5-Chloropyridin-2-yl)-2-methylbenzo[d][1,3]dioxol-4-yl)-2-azabicyclo[4.1.0]heptan-2-yl)methyl)-4-methoxy-1-(((S)-oxetan-2-yl)methyl)-1H-benzo[d]imidazole-6-carboxylic acid] | < 10 | > 85 | < 500 | 1.5 to 2.5 | 25 to 50 | < 500 |
| [2H]C([2H])(C)Oc1cc(C(=O)O)cc2c1nc(CN1CCC(c3cccc(OCc4ccc(Cl)cc4F)n3)CC1)n2C [Compound 296, 2-((4-(6-((4-Chloro-2-fluorobenzyl)oxy)pyridin-2-yl)piperidin-1-yl)methyl)-4-(ethoxy-1,1-d2)-1-methyl-1H-benzo[d]imidazole-6-carboxylic acid] | < 10 | > 85 | 2000 to 5000 | 1.5 to 2.5 | 25 to 50 | 2500 to 10000 |
| COc1cc(C(F)(F)F)ccc1COc1cccc(C2CCN(Cc3nc4c(OC)cc(C(=O)O)cc4n3C)CC2)n1 [Compound 306, 4-Methoxy-2-((4-(6-((2-methoxy-4-(trifluoromethyl)benzyl)oxy)pyridin-2-yl)piperidin-1-yl)methyl)-1-methyl-1H-benzo[d]imidazole-6-carboxylic acid] | < 10 | > 85 | 2000 to 5000 | 1.5 to 2.5 | 50 to 85 | 2500 to 10000 |
| COc1cc(C(=O)O)cc2c1nc(CN1CCC(c3cccc(OCc4ccc(Cl)cc4F)n3)CC1)n2C [Compound 249, 2-((4-(6-((4-Chloro-2-fluorobenzyl)oxy)pyridin-2-yl)piperidin-1-yl)methyl)-4-methoxy-1-methyl-1H-benzo[d]imidazole-6-carboxylic acid] | < 10 | > 85 | > 5000 | 1.5 to 2.5 | > 85 | – |
| Cn1c(CN2CCC(c3cccc(OCc4ccc(C#N)cc4F)n3)CC2)nc2c(OCF)cc(C(=O)O)cc21 [Compound 113, 2-((4-(6-((4-Cyano-2-fluorobenzyl)oxy)pyridin-2-yl)piperidin-1-yl)methyl)-4-(fluoromethoxy)-1-methyl-1H-benzo[d]imidazole-6-carboxylic acid] | < 10 | > 85 | 1000 to 2000 | 1.5 to 2.5 | 50 to 85 | 500 to 2500 |
| CC(F)(F)c1cc(C(=O)O)cc2c1nc(CN1CCC(c3cccc4c3O[C@](C)(c3ccc(Cl)cn3)O4)CC1)n2C[C@@H]1CCO1 [Compound 71, 2-((4-((R)-2-(5-Chloropyridin-2-yl)-2-methylbenzo[d][1,3]dioxol-4-yl)piperidin-1-yl)methyl)-4-(1,1-difluoroethyl)-1-(((S)-oxetan-2-yl)methyl)-1H-benzo[d]imidazole-6-carboxylic acid] | 10 to 100 | > 85 | 500 to 1000 | < 1.5 | 25 to 50 | 500 to 2500 |
| C[C@]1(c2ccc(Cl)cn2)Oc2cccc(C3CCN(Cc4nc5c(OC6COC6)cc(C(=O)O)cc5n4C[C@@H]4CCO4)CC3)c2O1 [Compound 72, 2-((4-((S)-2-(5-Chloropyridin-2-yl)-2-methylbenzo[d][1,3]dioxol-4-yl)piperidin-1-yl)methyl)-1-(((S)-oxetan-2-yl)methyl)-4-(oxetan-3-yloxy)-1H-benzo[d]imidazole-6-carboxylic acid] | < 10 | > 85 | < 500 | < 1.5 | < 25 | < 500 |
| COc1cc(C(F)(F)F)ccc1COc1cccc(C2CCN(Cc3nc4c(OC(F)F)cc(C(=O)O)cc4n3C)CC2)n1 [Compound 154, 4-(Difluoromethoxy)-2-((4-(6-((2-methoxy-4-(trifluoromethyl)benzyl)oxy)pyridin-2-yl)piperidin-1-yl)methyl)-1-methyl-1H-benzo[d]imidazole-6-carboxylic acid] | < 10 | > 85 | > 5000 | 1.5 to 2.5 | 50 to 85 | – |
| Cn1c(CN2CCC(c3cccc4c3O[C@@](C)(c3ccc(Cl)cn3)O4)CC2)nc2c(OC(F)F)cc(C(=O)O)cc21 [Compound 83, (S)-2-((4-(2-(5-Chloropyridin-2-yl)-2-methylbenzo[d][1,3]dioxol-4-yl)piperidin-1-yl)methyl)-4-(difluoromethoxy)-1-methyl-1H-benzo[d]imidazole-6-carboxylic acid] | < 10 | > 85 | 2000 to 5000 | ≥ 2.5 | > 85 | 2500 to 10000 |
| COc1cc(C(=O)O)c(F)c2c1nc(CN1CCC(c3cccc(OCc4ccc(Cl)cc4F)n3)CC1)n2C [Compound 302, 2-((4-(6-((4-Chloro-2-fluorobenzyl)oxy)pyridin-2-yl)piperidin-1-yl)methyl)-7-fluoro-4-methoxy-1-methyl-1H-benzo[d]imidazole-6-carboxylic acid] | < 10 | > 85 | 2000 to 5000 | ≥ 2.5 | 50 to 85 | 2500 to 10000 |
| COc1cc(C(=O)O)cc2c1nc(CN1CCC(c3cccc(OCc4ccc(C(F)F)cc4F)n3)CC1)n2C [Compound 305, 2-((4-(6-((4-(Difluoromethyl)-2-fluorobenzyl)oxy)pyridin-2-yl)piperidin-1-yl)methyl)-4-methoxy-1-methyl-1H-benzo[d]imidazole-6-carboxylic acid] | 10 to 100 | > 85 | 2000 to 5000 | 1.5 to 2.5 | 50 to 85 | 2500 to 10000 |
| [2H]C([2H])(C)Oc1cc(C(=O)O)cc2c1nc(CN1CCC(c3cccc(OCc4ccc(C#N)cc4F)n3)CC1)n2C [Compound 295, 2-((4-(6-((4-Cyano-2-fluorobenzyl)oxy)pyridin-2-yl)piperidin-1-yl)methyl)-4-(ethoxy-1,1-d2)-1-methyl-1H-benzo[d]imidazole-6-carboxylic acid] | < 10 | > 85 | 500 to 1000 | 1.5 to 2.5 | 25 to 50 | 500 to 2500 |
| COc1cc(C(=O)O)c(F)c2c1nc(CN1CCC(c3cccc(OCc4ccc(C#N)cc4F)n3)CC1)n2C [Compound 303, 2-((4-(6-((4-Cyano-2-fluorobenzyl)oxy)pyridin-2-yl)piperidin-1-yl)methyl)-7-fluoro-4-methoxy-1-methyl-1H-benzo[d]imidazole-6-carboxylic acid] | 10 to 100 | > 85 | 500 to 1000 | ≥ 2.5 | < 25 | 500 to 2500 |
| Cn1c(CN2CCC(c3cccc(OCc4ccc(C#N)cc4F)c3)CC2)nc2c(OC(F)F)cc(C(=O)O)cc21 [Compound 111, 2-((4-(3-((4-Cyano-2-fluorobenzyl)oxy)phenyl)piperidin-1-yl)methyl)-4-(difluoromethoxy)-1-methyl-1H-benzo[d]imidazole-6-carboxylic acid] | 100 to 1000 | > 85 | > 5000 | 1.5 to 2.5 | > 85 | – |
| C[C@]1(c2ccc(Cl)cn2)Oc2cccc(C3CCN(Cc4nc5c(OCC6COC6)cc(C(=O)O)cc5n4C[C@@H]4CCO4)CC3)c2O1 [Compound 77, 2-((4-((S)-2-(5-chloropyridin-2-yl)-2-methylbenzo[d][1,3]dioxol-4-yl)piperidin-1-yl)methyl)-1-(((S)-oxetan-2-yl)methyl)-4-(oxetan-3-ylmethoxy)-1H-benzo[d]imidazole-6-carboxylic acid] | < 10 | > 85 | < 500 | – | < 25 | < 500 |
